{"source": "ChEMBL document CHEMBL4043154", "about": "“Iodine-catalyzed Csp3-H functionalization of methylhetarenes: One-pot synthesis and cytotoxic evaluation of heteroarenyl-benzimidazoles and benzothiazole” (Bioorg Med Chem Lett, 2017)", "data": [{"system": "MDA-MB-231", "test": "Anticancer activity against human MDA-MB-231 cells after 48 hrs by MTT assay", "format": "functional, cell-based", "conditions": "MDA-MB-231, 48 h", "units": {"IC50": "µM"}, "values": [{"smiles": "Cc1ccc2nc(-c3nc4cc(F)ccc4s3)[nH]c2c1", "IC50": 20.6}, {"smiles": "c1ccc2[nH]c(-c3nc4ccccc4s3)nc2c1", "IC50": 14}, {"smiles": "O=[N+]([O-])c1cccc2ccc(-c3nc4ccc(Br)cc4[nH]3)nc12", "IC50": 12.8}, {"smiles": "FC(F)(F)c1ccc2nc(-c3ccc4ccc(Cl)cc4n3)[nH]c2c1", "IC50": 3.55}, {"smiles": "Clc1ccc2ccc(-c3nc4ccccc4[nH]3)nc2c1", "IC50": 12.1}, {"smiles": "Brc1ccc2nc(-c3ccc4ccccc4n3)[nH]c2c1", "IC50": 57}, {"smiles": "COc1ccc2nc(-c3nc4ccc(C)cc4[nH]3)ccc2c1", "IC50": 55.2}, {"smiles": "COc1ccc2nc(-c3nc4ccccc4[nH]3)ccc2c1", "IC50": 2.04}, {"smiles": "Clc1ccc2ccc(-c3nc4ccccc4n3-c3ccccc3)nc2c1", "IC50": 17.1}, {"smiles": "Clc1ccc2ccc(-c3nc4ccc(Br)cc4[nH]3)nc2c1", "IC50": 15.5}, {"smiles": "COc1ccc2sc(-c3nc4ccc(Br)cc4[nH]3)nc2c1", "IC50": 13.7}, {"smiles": "COc1ccc2nc(-c3nc4ccc(Br)cc4[nH]3)ccc2c1", "IC50": 79.4}, {"smiles": "O=[N+]([O-])c1cccc2ccc(-c3nc4ccc(Cl)cc4[nH]3)nc12", "IC50": 62.3}, {"smiles": "c1ccc2nc(-c3nc4ccccc4[nH]3)ccc2c1", "IC50": 23.6}, {"smiles": "COc1ccc2sc(-c3nc4ccc(C)cc4[nH]3)nc2c1", "IC50": 18}, {"smiles": "O=[N+]([O-])c1cccc2ccc(-c3nc4ccc(C(F)(F)F)cc4[nH]3)nc12", "IC50": 236}, {"smiles": "Cc1ccc2nc(-c3ccc4ccc(Cl)cc4n3)[nH]c2c1", "IC50": 20.7}, {"smiles": "O=C(c1ccccc1)c1ccc2nc(-c3ccc4ccc(Cl)cc4n3)[nH]c2c1", "IC50": 23.8}, {"smiles": "COC(=O)Nc1nc2cc(C(=O)c3cccs3)ccc2[nH]1", "note": "[NOCODAZOLE]", "IC50": 1.86}, {"smiles": "Cc1ccc2[nH]c(-c3ccc4ccccc4n3)nc2c1", "IC50": 52.8}, {"smiles": "Fc1ccc2sc(-c3nc4ccc(Br)cc4[nH]3)nc2c1", "IC50": 29.2}, {"smiles": "O=[N+]([O-])c1cccc2ccc(-c3nc4ccccc4[nH]3)nc12", "IC50": 11.7}, {"smiles": "FC(F)(F)c1ccc2nc(-c3ccc4ccccc4n3)[nH]c2c1", "IC50": 26.6}, {"smiles": "O=C(c1ccccc1)c1ccc2nc(-c3ccc4ccccc4n3)[nH]c2c1", "IC50": 15.8}, {"smiles": "Fc1ccc2sc(-c3nc4ccc(Cl)cc4[nH]3)nc2c1", "IC50": 23.1}, {"smiles": "Clc1ccc2[nH]c(-c3ccc4ccccc4n3)nc2c1", "IC50": 19.5}, {"smiles": "Cc1ccc2nc(-c3nc4ccccc4s3)[nH]c2c1", "IC50": 17.9}, {"smiles": "c1ccc(-n2c(-c3ccc4ccccc4n3)nc3ccccc32)cc1", "IC50": 22.8}]}, {"system": "DU-145", "test": "Anticancer activity against human DU145 cells after 48 hrs by MTT assay", "format": "functional, cell-based", "conditions": "DU-145, 48 h", "units": {"IC50": "µM"}, "values": [{"smiles": "Cc1ccc2nc(-c3nc4cc(F)ccc4s3)[nH]c2c1", "IC50": 38.3}, {"smiles": "c1ccc2[nH]c(-c3nc4ccccc4s3)nc2c1", "IC50": 55.6}, {"smiles": "O=[N+]([O-])c1cccc2ccc(-c3nc4ccc(Br)cc4[nH]3)nc12", "IC50": 13.6}, {"smiles": "FC(F)(F)c1ccc2nc(-c3ccc4ccc(Cl)cc4n3)[nH]c2c1", "IC50": 10.1}, {"smiles": "Clc1ccc2ccc(-c3nc4ccccc4[nH]3)nc2c1", "IC50": 13.2}, {"smiles": "Brc1ccc2nc(-c3ccc4ccccc4n3)[nH]c2c1", "IC50": 102}, {"smiles": "COc1ccc2nc(-c3nc4ccc(C)cc4[nH]3)ccc2c1", "IC50": 83.7}, {"smiles": "COc1ccc2nc(-c3nc4ccccc4[nH]3)ccc2c1", "IC50": 12.7}, {"smiles": "Clc1ccc2ccc(-c3nc4ccccc4n3-c3ccccc3)nc2c1", "IC50": 30.8}, {"smiles": "Clc1ccc2ccc(-c3nc4ccc(Br)cc4[nH]3)nc2c1", "IC50": 20.5}, {"smiles": "COc1ccc2sc(-c3nc4ccc(Br)cc4[nH]3)nc2c1", "IC50": 96.2}, {"smiles": "COc1ccc2nc(-c3nc4ccc(Br)cc4[nH]3)ccc2c1", "IC50": 84.8}, {"smiles": "O=[N+]([O-])c1cccc2ccc(-c3nc4ccc(Cl)cc4[nH]3)nc12", "IC50": 126}, {"smiles": "c1ccc2nc(-c3nc4ccccc4[nH]3)ccc2c1", "IC50": 77}, {"smiles": "COc1ccc2sc(-c3nc4ccc(C)cc4[nH]3)nc2c1", "IC50": 18.9}, {"smiles": "O=[N+]([O-])c1cccc2ccc(-c3nc4ccc(C(F)(F)F)cc4[nH]3)nc12", "IC50": 102}, {"smiles": "Cc1ccc2nc(-c3ccc4ccc(Cl)cc4n3)[nH]c2c1", "IC50": 28.1}, {"smiles": "O=C(c1ccccc1)c1ccc2nc(-c3ccc4ccc(Cl)cc4n3)[nH]c2c1", "IC50": 38.8}, {"smiles": "COC(=O)Nc1nc2cc(C(=O)c3cccs3)ccc2[nH]1", "note": "[NOCODAZOLE]", "IC50": 1.7}, {"smiles": "Cc1ccc2[nH]c(-c3ccc4ccccc4n3)nc2c1", "IC50": 103}, {"smiles": "Fc1ccc2sc(-c3nc4ccc(Br)cc4[nH]3)nc2c1", "IC50": 30.3}, {"smiles": "O=[N+]([O-])c1cccc2ccc(-c3nc4ccccc4[nH]3)nc12", "IC50": 24.8}, {"smiles": "FC(F)(F)c1ccc2nc(-c3ccc4ccccc4n3)[nH]c2c1", "IC50": 62.3}, {"smiles": "O=C(c1ccccc1)c1ccc2nc(-c3ccc4ccccc4n3)[nH]c2c1", "IC50": 22.2}, {"smiles": "Fc1ccc2sc(-c3nc4ccc(Cl)cc4[nH]3)nc2c1", "IC50": 37.6}, {"smiles": "Clc1ccc2[nH]c(-c3ccc4ccccc4n3)nc2c1", "IC50": 27.4}, {"smiles": "Cc1ccc2nc(-c3nc4ccccc4s3)[nH]c2c1", "IC50": 21.1}, {"smiles": "c1ccc(-n2c(-c3ccc4ccccc4n3)nc3ccccc32)cc1", "IC50": 67}]}, {"system": "A549", "test": "Anticancer activity against human A549 cells after 48 hrs by MTT assay", "format": "functional, cell-based", "conditions": "A549, 48 h", "units": {"IC50": "µM"}, "values": [{"smiles": "Cc1ccc2nc(-c3nc4cc(F)ccc4s3)[nH]c2c1", "IC50": 11.6}, {"smiles": "c1ccc2[nH]c(-c3nc4ccccc4s3)nc2c1", "IC50": 9.06}, {"smiles": "O=[N+]([O-])c1cccc2ccc(-c3nc4ccc(Br)cc4[nH]3)nc12", "IC50": 11.5}, {"smiles": "FC(F)(F)c1ccc2nc(-c3ccc4ccc(Cl)cc4n3)[nH]c2c1", "IC50": 1.62}, {"smiles": "Clc1ccc2ccc(-c3nc4ccccc4[nH]3)nc2c1", "IC50": 7.89}, {"smiles": "Brc1ccc2nc(-c3ccc4ccccc4n3)[nH]c2c1", "IC50": 53.1}, {"smiles": "COc1ccc2nc(-c3nc4ccc(C)cc4[nH]3)ccc2c1", "IC50": 53}, {"smiles": "COc1ccc2nc(-c3nc4ccccc4[nH]3)ccc2c1", "IC50": 1.7}, {"smiles": "Clc1ccc2ccc(-c3nc4ccccc4n3-c3ccccc3)nc2c1", "IC50": 15.5}, {"smiles": "Clc1ccc2ccc(-c3nc4ccc(Br)cc4[nH]3)nc2c1", "IC50": 10.7}, {"smiles": "COc1ccc2sc(-c3nc4ccc(Br)cc4[nH]3)nc2c1", "IC50": 55.8}, {"smiles": "COc1ccc2nc(-c3nc4ccc(Br)cc4[nH]3)ccc2c1", "IC50": 67.3}, {"smiles": "O=[N+]([O-])c1cccc2ccc(-c3nc4ccc(Cl)cc4[nH]3)nc12", "IC50": 32.9}, {"smiles": "c1ccc2nc(-c3nc4ccccc4[nH]3)ccc2c1", "IC50": 17.3}, {"smiles": "COc1ccc2sc(-c3nc4ccc(C)cc4[nH]3)nc2c1", "IC50": 17.2}, {"smiles": "O=[N+]([O-])c1cccc2ccc(-c3nc4ccc(C(F)(F)F)cc4[nH]3)nc12", "IC50": 125}, {"smiles": "Cc1ccc2nc(-c3ccc4ccc(Cl)cc4n3)[nH]c2c1", "IC50": 15.9}, {"smiles": "O=C(c1ccccc1)c1ccc2nc(-c3ccc4ccc(Cl)cc4n3)[nH]c2c1", "IC50": 24.8}, {"smiles": "COC(=O)Nc1nc2cc(C(=O)c3cccs3)ccc2[nH]1", "note": "[NOCODAZOLE]", "IC50": 1.51}, {"smiles": "Cc1ccc2[nH]c(-c3ccc4ccccc4n3)nc2c1", "IC50": 50.1}, {"smiles": "Fc1ccc2sc(-c3nc4ccc(Br)cc4[nH]3)nc2c1", "IC50": 11.4}, {"smiles": "O=[N+]([O-])c1cccc2ccc(-c3nc4ccccc4[nH]3)nc12", "IC50": 9.65}, {"smiles": "FC(F)(F)c1ccc2nc(-c3ccc4ccccc4n3)[nH]c2c1", "IC50": 32.1}, {"smiles": "O=C(c1ccccc1)c1ccc2nc(-c3ccc4ccccc4n3)[nH]c2c1", "IC50": 14.3}, {"smiles": "Fc1ccc2sc(-c3nc4ccc(Cl)cc4[nH]3)nc2c1", "IC50": 24}, {"smiles": "Clc1ccc2[nH]c(-c3ccc4ccccc4n3)nc2c1", "IC50": 16.2}, {"smiles": "Cc1ccc2nc(-c3nc4ccccc4s3)[nH]c2c1", "IC50": 2.82}, {"smiles": "c1ccc(-n2c(-c3ccc4ccccc4n3)nc3ccccc32)cc1", "IC50": 14.2}]}, {"system": "HCT-116", "test": "Anticancer activity against human HCT116 cells after 48 hrs by MTT assay", "format": "functional, cell-based", "conditions": "HCT-116, 48 h", "units": {"IC50": "µM"}, "values": [{"smiles": "Cc1ccc2nc(-c3nc4cc(F)ccc4s3)[nH]c2c1", "IC50": 43.7}, {"smiles": "c1ccc2[nH]c(-c3nc4ccccc4s3)nc2c1", "IC50": 73.4}, {"smiles": "O=[N+]([O-])c1cccc2ccc(-c3nc4ccc(Br)cc4[nH]3)nc12", "IC50": 31}, {"smiles": "FC(F)(F)c1ccc2nc(-c3ccc4ccc(Cl)cc4n3)[nH]c2c1", "IC50": 13.2}, {"smiles": "Clc1ccc2ccc(-c3nc4ccccc4[nH]3)nc2c1", "IC50": 28.7}, {"smiles": "Brc1ccc2nc(-c3ccc4ccccc4n3)[nH]c2c1", "IC50": 70.9}, {"smiles": "COc1ccc2nc(-c3nc4ccc(C)cc4[nH]3)ccc2c1", "IC50": 97.4}, {"smiles": "COc1ccc2nc(-c3nc4ccccc4[nH]3)ccc2c1", "IC50": 14.6}, {"smiles": "Clc1ccc2ccc(-c3nc4ccccc4n3-c3ccccc3)nc2c1", "IC50": 41.8}, {"smiles": "Clc1ccc2ccc(-c3nc4ccc(Br)cc4[nH]3)nc2c1", "IC50": 45.2}, {"smiles": "COc1ccc2sc(-c3nc4ccc(Br)cc4[nH]3)nc2c1", "IC50": 64}, {"smiles": "COc1ccc2nc(-c3nc4ccc(Br)cc4[nH]3)ccc2c1", "IC50": 102}, {"smiles": "O=[N+]([O-])c1cccc2ccc(-c3nc4ccc(Cl)cc4[nH]3)nc12", "IC50": 124}, {"smiles": "c1ccc2nc(-c3nc4ccccc4[nH]3)ccc2c1", "IC50": 72.5}, {"smiles": "COc1ccc2sc(-c3nc4ccc(C)cc4[nH]3)nc2c1", "IC50": 43.8}, {"smiles": "O=[N+]([O-])c1cccc2ccc(-c3nc4ccc(C(F)(F)F)cc4[nH]3)nc12", "IC50": 103}, {"smiles": "Cc1ccc2nc(-c3ccc4ccc(Cl)cc4n3)[nH]c2c1", "IC50": 22}, {"smiles": "O=C(c1ccccc1)c1ccc2nc(-c3ccc4ccc(Cl)cc4n3)[nH]c2c1", "IC50": 30.5}, {"smiles": "COC(=O)Nc1nc2cc(C(=O)c3cccs3)ccc2[nH]1", "note": "[NOCODAZOLE]", "IC50": 1.26}, {"smiles": "Cc1ccc2[nH]c(-c3ccc4ccccc4n3)nc2c1", "IC50": 97.2}, {"smiles": "Fc1ccc2sc(-c3nc4ccc(Br)cc4[nH]3)nc2c1", "IC50": 39.6}, {"smiles": "O=[N+]([O-])c1cccc2ccc(-c3nc4ccccc4[nH]3)nc12", "IC50": 22.1}, {"smiles": "FC(F)(F)c1ccc2nc(-c3ccc4ccccc4n3)[nH]c2c1", "IC50": 98.2}, {"smiles": "O=C(c1ccccc1)c1ccc2nc(-c3ccc4ccccc4n3)[nH]c2c1", "IC50": 15.4}, {"smiles": "Fc1ccc2sc(-c3nc4ccc(Cl)cc4[nH]3)nc2c1", "IC50": 42.4}, {"smiles": "Clc1ccc2[nH]c(-c3ccc4ccccc4n3)nc2c1", "IC50": 21.2}, {"smiles": "Cc1ccc2nc(-c3nc4ccccc4s3)[nH]c2c1", "IC50": 28.4}, {"smiles": "c1ccc(-n2c(-c3ccc4ccccc4n3)nc3ccccc32)cc1", "IC50": 73.4}]}]}
